Like-named read-outs stand apart in the source and are kept apart here.

The source of these data is patent US20060234987A1, “Neuroprotective benzo 1 3 oxathiol 2 ones” (priority 2003, published 2006).

One test addresses T1, SHP1 (Homo sapiens, UniProt P29350).
T1 construct: made in house; host or cells: adenovirus vector
In words: Phosphatase profile: SHP1 inhibition (DIFMUP fluorescence). In kind it is biochemical. The procedure: A) SHP1 and SHP2: SHP1 and SHP2 adenovirus vectors were prepared. SHP1 and SHP2 were independently over expressed, isolated and purified using FPLC. Enzyme was diluted to 1000-1400 FU/min. Enzyme (45 μL) was uniformLy plated in 96 well plates and treated with serial dilutions of compound (2 μL in DMSO). Compound and enzyme are allowed to incubate for 30 minutes at RT before the addition of DIFMUP (100 μM). The solutions are allowed to incubate at RT for 10 minutes prior to reading the fluorescence, to provide IC50 curves using LSW Data Analysis Tool Box (MDL).

Test [1] deals with SCG neurons. In words: In vitro protection of SCG neurons from cisplatin killing. The format is cell-based, Sprague Dawley rats. To be noted: Rattus norvegicus, Neuron; cisplatin 3 μg/mL, 48 hours, MTS viability; read-out: IC50 (±1 μM), protection of SCG neurons against cisplatin killing. As to the method: The mechanism of cisplatin's anti-cancer action is not fully understood, but is believed to involve DNA binding and […]. Cisplatin is toxic to neurons. The addition of cisplatin (3 μg/mL) to cultured SCG neurons induces apoptosis of upwards of 80% of the neurons. The addition of selected compounds of Formula I to the cellular media, concurrently with cisplatin, protects upwards of 100% of the neurons, at drug concentrations ranging from 1 to 50 μM (see Example 64).
In Vitro Protection of SCG neurons from cisplatin killing. SCG neurons were isolated from day 1 neonatal Sprague Dawley rats, plated at a cell density of 10,000 cells/well, and incubated in Biowhittaker Ultraculture containing 1% Penstrep, 1% L-glutamine, 0.7% ARAC, 3% rat serum, and NGF (50 ng/mL, Calomone Labs) at 37° C., under a 5% CO2 atmosphere. After 5 days the cells were treated with compound and cisplatin (3 μg/mL). Viability was assessed 48 hours later using MTS (Promega) staining.

A further test concerns PP1. In words: PP1 Assay. In kind it is biochemical. As to conditions: Table 6. As to the method: E) PP1 Assay: Inhibition of the phosphatase PP1 was performed according to reported procedures (Nat. Biotechnol., 2000, 18, 847).
In test [2] the test system is SCG neurons. In words: Protection of SCG neurons from anti-NGF killing. In kind it is cell-based, Sprague Dawley rats. To be noted: Rattus norvegicus, Neuron; anti-NGF antibody, 48 hours, Alamar Blue viability; read-out: IC50, rescue from anti-NGF killing of cultured SCG neurons. As to the method: Neurotrophins are critical to the growth, development, and survival of small fiber neurons of the PNS. SCG neurons are neurons of the PNS that undergo apoptosis upon NGF withdrawal. In a typical experiment SCG neurons are cultured in the presence of NGF, which induces survival and neurite out-growth. After 5 days the NGF is removed by either the addition of anti-NGF polyclonal antibody (Sigma) or by repeated washings (4 times) with NGF free media, resulting in the apoptosis of up to 90% of the neurons after 48 hours, as measured by MTS staining. The addition of selected compounds of Formula I to the final cellular media provides upwards of 100% protection, at drug concentrations ranging from 10 to 50 μM (see Example 62).
Protection of SCG neurons from anti-NGF killing. SCG neurons were isolated from day 1 neonatal Sprague Dawley rats, plated at a cell density of 5,000 cells/well, and incubated in Biowhittaker Ultraculture containing 1% Penstrep, 1% L-glutamine, 0.7% ARAC, 3% rat serum, and NGF (50 ng/mL, Calomone Labs), at 37° C., under a 5% CO2 atmosphere. After 4 days the cells were treated with anti-NGF antibody (Sigma). At this time compound was added and the cells were maintained serum and NGF free for 48 hours, at which time viability of the neurons was assessed using Alamar Blue (Medicorp) staining. Table 3 summarizes selected IC50 values from compounds tested using this protocol.
Background: Resazurin is reduced to fluorescent resorufin, in cell work by metabolically active cells.

The target in the next test is T2, PTP-1B (Homo sapiens, UniProt P18031).
T2 construct: purchased BIOMOL Research Laboratories, Inc
T2 sequence (P18031 1-435): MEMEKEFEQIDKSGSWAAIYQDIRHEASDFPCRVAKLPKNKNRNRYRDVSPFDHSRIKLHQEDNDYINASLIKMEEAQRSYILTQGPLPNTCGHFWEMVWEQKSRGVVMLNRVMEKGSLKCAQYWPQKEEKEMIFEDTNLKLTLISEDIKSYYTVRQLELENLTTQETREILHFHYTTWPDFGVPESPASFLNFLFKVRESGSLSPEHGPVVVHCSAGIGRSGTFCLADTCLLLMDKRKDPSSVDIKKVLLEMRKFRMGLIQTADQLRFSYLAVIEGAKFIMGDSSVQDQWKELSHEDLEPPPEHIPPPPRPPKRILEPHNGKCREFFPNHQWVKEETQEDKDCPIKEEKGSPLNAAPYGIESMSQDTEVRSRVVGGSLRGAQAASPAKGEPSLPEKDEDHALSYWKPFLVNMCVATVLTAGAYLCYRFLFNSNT
In words: PTP-1B Assay. The format is biochemical. As to conditions: Table 6. The procedure:
B) PTP-1B Assay: Inhibition of the phosphatase PTP1B was performed according to reported procedures (Puius, Y. A. et a. Proc. Natl. Acad. Sci., 1997, 94, 13420; Liu, F. J. Biol. Chem., 1996, 271, 31290). PTP1B was purchased from BIOMOL Research Laboratories, Inc.

T1 sequence (P29350 whole entry): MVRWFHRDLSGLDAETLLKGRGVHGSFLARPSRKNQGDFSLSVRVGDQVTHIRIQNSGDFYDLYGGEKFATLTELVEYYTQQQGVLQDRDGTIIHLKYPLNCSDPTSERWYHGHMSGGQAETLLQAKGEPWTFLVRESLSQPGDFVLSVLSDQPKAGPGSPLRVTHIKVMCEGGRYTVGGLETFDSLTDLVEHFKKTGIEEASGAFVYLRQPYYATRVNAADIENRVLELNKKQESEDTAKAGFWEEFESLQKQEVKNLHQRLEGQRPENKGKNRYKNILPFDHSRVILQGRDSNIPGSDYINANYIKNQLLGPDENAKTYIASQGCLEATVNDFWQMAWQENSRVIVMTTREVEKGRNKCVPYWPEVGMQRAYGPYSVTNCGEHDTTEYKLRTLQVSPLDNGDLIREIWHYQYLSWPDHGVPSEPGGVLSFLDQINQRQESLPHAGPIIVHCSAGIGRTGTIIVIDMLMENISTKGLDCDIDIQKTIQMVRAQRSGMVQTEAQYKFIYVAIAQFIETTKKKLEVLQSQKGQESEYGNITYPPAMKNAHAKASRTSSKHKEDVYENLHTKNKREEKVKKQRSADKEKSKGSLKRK

The term IC50 denotes the point on the concentration scale where inhibition reaches its midpoint. For `O=c1oc2c(Sc3ccc4ccccc4c3)cc(O)cc2s1` [Compound 23, 5-Hydroxy-7-((2-naphthy)sulfanyl)benzo[1,3]oxathiol-2-one], the IC50 was 10.6 µM at SHP1 (FIG. 1 legend, read-out: SHP1 IC50 (FIG. 1 inhibition curve)); 10.9 µM at SHP1 (Table 6, read-out: SHP1 IC50); 15 µM with SCG neurons [1]; 25 µM with SCG neurons [2]. Besides, the “PP1 IC50” value in the test on PP1 is reported as “no inh”. Besides, the “PTP-1B IC50” value at PTP-1B was “no inh”.
Consider `O=c1oc2c(Sc3ccc4ccccc4c3)cc(O)c(Sc3ccc4ccccc4c3)c2s1` [Compound 30, 4,7-Bis-((2-naphthyl)sulfanyl)-5-hydroxybenzo[1,3]oxathiol-2-one], for which the IC50 at SHP1 (Table 6, read-out: SHP1 IC50) is 5.41 µM; in the test on SCG neurons [2], more than 30 µM. The “PP1 IC50” value in the test on PP1 is listed as “no inh”. Also, the “PTP-1B IC50” value on PTP-1B is listed as “no inh”.
